A short description of series [1]: Area under curve obtained at a dose of 10 mg/kg when administered orally to rhesus monkey. The settings on record: in vivo, po. On the set-up: dose 10 mg/kg, route oral. Type of series: ADME, organism-based, Macaca mulatta.
Series [2] can be described thus: Total plasma concentration at 24 hr at a dose of 10 mg/kg when administered orally to rhesus monkey. The series is classed as ADME, organism-based, Macaca mulatta. Details: dose 10 mg/kg, route oral. The settings on record: po, read-out: C24h.
For series [3], the system named is Human immunodeficiency virus type 1 reverse transcriptase (Human immunodeficiency virus 1), Q72547 [K103N].
Description: Compound was evaluated for its ability to inhibit a virus containing the clinically relevant K103N mutation
Series [4] in a line: Tmax was determined. Type of series: ADME.
Series [5] can be described thus: Cmax was determined. Type of series: ADME, organism-based. The following applies: in vivo.
In series [6] the target is T1, Human immunodeficiency virus type 1 reverse transcriptase (Human immunodeficiency virus 1, UniProt Q72547). Nature of the series: Compound was evaluated for its ability to inhibit HIV-1 Reverse Transcriptase in an in vitro enzyme assay.
Series [7] addresses Human immunodeficiency virus type 1 reverse transcriptase (Human immunodeficiency virus 1) (UniProt Q72547).
Description: Compound was evaluated for its ability to inhibit the wild type RF strain of HIV-1
Series [8] concerns the target T1, Human immunodeficiency virus type 1 reverse transcriptase. Kind of series: Inhibition of HIV-1 Reverse Transcriptase in an in vitro enzyme assay.

Structures are written as SMILES.

One may read the AUC as the area under the concentration-time curve, a measure of exposure. For orientation: IC90 means the concentration at which the effect reaches the 90% level. As usually defined, the Tmax is the time at which the peak concentration occurs. As a reminder, the Cmax is the maximum level reached in the sampled fluid or tissue. Broadly, the IC50 is the concentration that gives 50% inhibition.

Consider `C[C@@H]1O[C@](C#CC2CC2)(C(F)(F)F)c2cc(Cl)ccc2NC1=O` (relative stereo), for which, in series [1], the AUC worked out at 30 µM·h. Moreover, the concentration at 24 h in series [2] stood at 1140 nM. Moreover, the IC90 in series [3] was found to be 29 nM; in series [7], 2.2 nM. In series [4], the Tmax came to 6 h. Moreover, in series [5], the highest level (Cmax) was 1670 nM. The same compound returned an IC50 in series [6] of 82 nM.

Take `CC(C)C1OC(C#CC2CC2)(C(F)(F)F)c2cc(Cl)ccc2NC1=O` (centres undefined): the IC50 in series [6] was 597 nM. Also, it took 20.7 nM to reach the 90% level in series [7] (IC90).

Take `CCC1OC(/C=C/C2CC2)(C(F)(F)F)c2cc(F)ccc2NC1=O` (centres undefined): the IC90 in series [3] worked out at 70 nM; in series [7] it was 2.5 nM. Moreover, it took 151 nM to reach half-maximal inhibition in series [6] (IC50).

Turning to `CCC1OC(C#CC2CC2)(C(F)(F)F)c2cc(Cl)ccc2NC1=O` (centres undefined), the 90% effect concentration (IC90) worked out at 139 nM in series [3] and 8.4 nM in series [7]. Besides, the IC50 in series [8] was 391 nM.

Consider `C[C@H]1O[C@](C#CC2CC2)(C(F)(F)F)c2cc(Cl)ccc2NC1=O`, for which the concentration for an effect of 90% (IC90) in series [3] worked out at 1130 nM; in series [7], 7 nM. The IC50 in series [6] is 249 nM.

Consider `O=C1Nc2ccc(Cl)cc2[C@@](/C=C/C2CC2)(C(F)(F)F)N1`, for which the IC90 is 27 nM in series [3] and 2.1 nM in series [7]. The 50% inhibitory concentration (IC50) in series [6] stood at 23 nM.

In the case of `C[C@@H]1O[C@](C#CC2CC2)(C(F)(F)F)c2cc(F)ccc2NC1=O`, the results for the IC90 in series [3] and in series [7] were 333 nM and 5.2 nM, respectively. Also, in series [6], 95 nM corresponded to half-maximal inhibition (IC50).

Take `CCC#CC1(C(F)(F)F)OCC(=O)Nc2ccc(Cl)cc21` (centres undefined): the IC90 turned out to be 1760 nM in series [3] and 9.1 nM in series [7]. Also, the IC50 in series [6] was 964 nM.

With `O=C1COC(/C=C/C2CC2)(C(F)(F)F)c2cc(Cl)ccc2N1` (centres undefined), the IC90 in series [3] came to 362 nM; in series [7], 3.9 nM. This compound also gave an IC50 in series [6] of 108 nM.

On to `CCC1OC(/C=C/C2CC2)(C(F)(F)F)c2cc(Cl)ccc2NC1=O` (centres undefined), for which the IC90 in series [3] was found to be 13 nM; in series [7] it was 7.8 nM. The compound further yielded an IC50 in series [6] of 185 nM.

`CC1OC(C#CC2CC2)(C(F)(F)F)c2c(ccc(F)c2F)NC1=O` (centres undefined): the 90% effect concentration (IC90) in series [3] was 75 nM; in series [7] it was 5.8 nM. The compound further showed an IC50 in series [6] of 193 nM.

Regarding `CC1OC(/C=C/C2CC2)(C(F)(F)F)c2c(ccc(F)c2F)NC1=O` (centres undefined), the IC90 in series [3] was 81 nM; in series [7] it was 5.2 nM. The half-maximal inhibitory concentration (IC50) in series [6] was determined as 173 nM.

In series [6], `O=C1Nc2ccc(Cl)cc2C(C#CC2CC2)(C(F)(F)F)OC1CC(F)(F)F` (centres undefined) had an IC50 of 235 nM. Moreover, in series [7], it took 16.8 nM to reach the 90% level (IC90).

In series [6], `CC[C@H]1O[C@](C#CC2CC2)(C(F)(F)F)c2cc(F)ccc2NC1=O` displayed an IC50 of 1140 nM. Further, the 90% effect level in series [7] (IC90) was put at 87.4 nM.

Turning to `O=C1Nc2ccc(Cl)cc2[C@@](C#CC2CC2)(C(F)(F)F)N1`, the results for the IC90 in series [3] and in series [7] were 10 nM and 2 nM, respectively. The IC50 in series [6] was found to be 32 nM.

For `CC1OC(/C=C/C2CC2)(C(F)(F)F)c2cc(Cl)ccc2NC1=O` (centres undefined), the exposure (AUC) in series [1] turned out to be 50.8 µM·h. The concentration at 24 h in series [2] came to 1400 nM. For the same compound, the IC90 amounted to 35 nM in series [3] and 2.5 nM in series [7]. Besides, in series [4], the Tmax stood at 11 h. In addition, in series [5], the Cmax is 2360 nM. This compound also showed an IC50 in series [6] of 46 nM.

As for `O=C1COC(C#Cc2ccccc2)(C(F)(F)F)c2cc(Cl)ccc2N1` (centres undefined), the IC90 in series [3] was found to be 4100 nM; in series [7], 24.3 nM. The compound also gave an IC50 in series [6] of 3300 nM.

For the compound `O=C1COC(C#CC2CC2)(C(F)(F)F)c2cc(Cl)ccc2N1` (centres undefined), the IC90 is 1400 nM in series [3] and 9.1 nM in series [7]. In addition, in series [6], the IC50 is 432 nM.

As to `CC1OC(/C=C/C2CC2)(C(F)(F)F)c2cc(F)ccc2NC1=O` (centres undefined), the IC90 in series [3] stood at 118 nM; in series [7], 7.6 nM. In addition, in series [6], the IC50 turned out to be 129 nM.

For the compound `CCCC1OC(C#CC2CC2)(C(F)(F)F)c2cc(Cl)ccc2NC1=O` (centres undefined), the IC50 in series [6] came to 799 nM. Moreover, the IC90 in series [7] was 17.2 nM.

In series [6], `C[C@H]1O[C@](C#CC2CC2)(C(F)(F)F)c2cc(F)ccc2NC1=O` came in with an IC50 of 1940 nM. In addition, in series [7], the 90% effect level (IC90) was put at 189 nM.

Consider `CC(C)C#CC1(C(F)(F)F)OCC(=O)Nc2ccc(Cl)cc21` (centres undefined), for which the 90% effect concentration (IC90) in series [3] was 784 nM; in series [7], 9.7 nM. In series [6], the IC50 came to 423 nM.

Compound `O=C1COC(C#Cc2ccoc2)(C(F)(F)F)c2cc(Cl)ccc2N1` (centres undefined) showed an IC50 in series [6] of 2510 nM. Further, in series [7], it took 47.5 nM to reach the 90% level (IC90).

With `CC[C@@H]1O[C@](C#CC2CC2)(C(F)(F)F)c2cc(F)ccc2NC1=O`, the values for the IC90 in series [3] and in series [7] were 117 nM and 5.3 nM, respectively. The compound also displayed an IC50 in series [6] of 171 nM.

For the origin of these results see ChEMBL document CHEMBL1134799, “4,1-Benzoxazepinone analogues of efavirenz (Sustiva) as HIV-1 reverse transcriptase inhibitors” (Bioorg Med Chem Lett, 2001).
